Reference: patent US8993632B2, “Inhibitors of the 11-beta-hydroxysteroid dehydrogenase type 1 enzyme” (AbbVie Inc., priority 2005, dated 2015)

Legend:
[1] = Metabolic stability screen, mouse liver microsomes; assay type: in vitro ADME; conditions: 10 μM substrate, 30 min incubation, 37° C., 1 mM NADPH
Method: (§1) Metabolic stability screen: each substrate (10 μM) was incubated with microsomal protein (0.1-0.5 mg/ml) in 50 mM potassium phosphate buffer (pH 7.4) in 48-Well plate. The enzyme reaction was initiated by the addition of 1 mM NADPH, then incubated at 37° C. in a Form a Scientific incubator (Marietta, Ohio, USA) with gentle shaking. The reactions were quenched by the addition of 800 μl of ACN/MeOH (1:1, v/v), containing 0.5 μM of internal standard (IS), after 30 min incubation. Samples were then filtered by using Captiva 96-Well Filtration (Varian, Lake Forest, Calif., USA) and analyzed by LC/MS (mass spectrometry). Liver microsomal incubations were conducted in duplicate.
(§2) The parent remaining in the incubation mixture was determined by LC/MS. The LC/MS system consisted of an Agilent 1100 series (Agilent Technologies, Waldbronn, Germany) and API 2000 (MDS SCIEX, Ontario, Canada). A Luna C8(2) (50×2.0 mm, particle size 3 μm, Phenomenex, Torrance, Calif., USA) was used to quantify each compound at ambient temperature. The mobile phase consisted of (A): 10 mM NH4AC (pH 3.3) and (B): 100% ACN and was delivered at a flow rate of 0.2 ml/min. Elution was achieved using a linear gradient of 0-100% B over 3 min, then held 100% B for 4 min and returned to 100% A in 1 min. The column was equilibrated for 7 min before the next injection.
(§3) The peak area ratios (each substrate over IS) at each incubation time were expressed as the percentage of the ratios (each substrate over IS) of the control samples (0 min incubation). The parent remaining in the incubation mixture was expressed as the percentage of the values at 0 min incubation. The percentage turnover is calculated using the following equation (% turnover=100% turnover−% parent remaining) and is recorded as the percentage turnover in the Table 2.

[2] = Metabolic stability screen, human liver microsomes; assay type: in vitro ADME; conditions: 10 μM substrate, 30 min incubation, 37° C., 1 mM NADPH
Method: as §1, §2, §3

[3] = target: T1, truncated human 11β-HSD-1 enzyme (24-287AA) (Homo sapiens, UniProt P28845); test: 11β-HSD-1 enzymatic Scintillation Proximity Assay (SPA); assay type: biochemical
T1 construct: truncated human 11β-HSD-1 enzyme (24-287AA); made in house; host or cells: E. coli (crude lysate)
T1 sequence (P28845 24-287): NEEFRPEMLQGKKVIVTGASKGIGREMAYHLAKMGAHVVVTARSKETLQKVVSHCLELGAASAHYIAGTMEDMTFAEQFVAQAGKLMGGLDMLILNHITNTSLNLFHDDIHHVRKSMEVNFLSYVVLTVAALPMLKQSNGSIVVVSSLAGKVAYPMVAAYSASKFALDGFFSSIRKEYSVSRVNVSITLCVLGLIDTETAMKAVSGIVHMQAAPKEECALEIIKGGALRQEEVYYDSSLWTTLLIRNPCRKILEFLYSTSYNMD
Method: (§4) The reaction was stopped by adding a non-specific 11β-HSD inhibitor, 18β-glycyrrhetinic acid. The tritiated cortisol was captured by a mixture of an anti-cortisol monoclonal antibody and SPA beads coated with anti-mouse antibodies. The reaction plate was shaken at room temperature and the radioactivity bound to SPA beads was then measured on a β-scintillation counter. The 11-βHSD-1 assay was carried out in 96-well microtiter plates in a total volume of 220 μl. […] In order to drive the reaction in the forward direction, 1 mM G-6-P was also added. Solid compound was dissolved in DMSO to make a 10 mM stock followed by a subsequent 10-fold dilution with 3% DMSO in Tris/EDTA buffer (pH 7.4). […] Reactions were initiated by the addition of 10 μl of 0.1 mg/ml E. coli lysates overexpressing 11β-HSD-1 enzyme. After shaking and incubating plates for 30 minutes at room temperature, reactions were stopped by adding 10 μl of 1 mM glycyrrhetinic acid. The product, tritiated cortisol, was captured by adding 10 μl of […] monoclonal anti-cortisol antibodies and 100 μl SPA beads coated with anti-mouse antibodies. After shaking for 30 minutes, plates were read on a liquid scintillation counter Topcount. Percent inhibition was calculated based on the background and the maximal signal. Wells that contained substrate without compound or enzyme were used as the background, while the wells that contained substrate and enzyme without any compound were considered as maximal signal. Percent of inhibition of each compound was calculated relative to the maximal signal and IC50 curves were generated. This assay was applied to 11β-HSD-2 as well, whereby tritiated cortisol and NAD^+ were used as substrate and cofactor, respectively.

[4] = system: CD-1 mice; test: 24-hour inhibitory avoidance in mice after subchronic (3 administration) dosing; assay type: in vivo; conditions: 30 mg/kg PO, BID the day before and one hour before training, vs vehicle control mice
Method: Male CD-1 mice were obtained from Charles River, Wilmington, Mass. Mice were group-housed 10 per cage. The body weight upon arrival was 20-25 g. Food and water were available ad libitum except during experiments. Animals were acclimated to the animal facilities for a period of at least one week prior to commencement of experiments. Animals were tested in the light phase of a 12-hour light: 12-hour dark schedule (lights on 0600 hours).
Compound KK and Compound LL were synthesized at Abbott Laboratories. […] Compound KK was administered in a cloudy, fine suspension, while Compound LL was administered in a solution.
On training day, mice were injected with Compound KK, Compound LL or vehicle one-hour PO before training. One hour following injection (start of training) mice were subjected to a training session in which they were placed in a lighted compartment of a two-compartment chamber (Gemini apparatus, San Diego Instruments, San Diego, Calif.) with a manually operated gate separating the compartments. […] Twenty-four hours later mice were again tested in the same apparatus, except without shock, and the transfer latency from the lighted to the dark compartment recorded and used as an index of memory for the punished response 24 hours earlier. […] Data were analyzed using Mann Whitney U comparisons. […]

[5] = target: T2, human 11-β-HSD-2 (Homo sapiens, UniProt P80365); test: 11β-HSD-2 Scintillation Proximity Assay (tritiated cortisol, NAD+); assay type: biochemical; conditions: human enzyme, SPA
T2 sequence (P80365 1-405): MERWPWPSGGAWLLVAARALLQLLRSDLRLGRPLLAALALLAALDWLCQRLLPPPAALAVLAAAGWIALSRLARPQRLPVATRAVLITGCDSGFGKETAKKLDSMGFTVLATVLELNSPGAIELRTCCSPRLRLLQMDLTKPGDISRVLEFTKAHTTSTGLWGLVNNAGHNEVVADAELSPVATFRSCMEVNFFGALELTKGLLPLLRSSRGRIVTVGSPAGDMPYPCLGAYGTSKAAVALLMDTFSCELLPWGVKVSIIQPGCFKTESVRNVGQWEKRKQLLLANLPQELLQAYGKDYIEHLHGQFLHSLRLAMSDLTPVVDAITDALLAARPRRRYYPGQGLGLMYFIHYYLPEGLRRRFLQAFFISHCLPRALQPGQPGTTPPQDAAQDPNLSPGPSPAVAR
Method: as §4

Row | SMILES | Mouse Liver Microsomal Turnover (%) [1] [%] | Human Liver Microsomal Turnover (%) [2] [%] | IC50 [3] [nM] | IC50 [5] [nM] | memory retention (transfer latency), FIG. 3 [4]
1 | O=C(O)C12CC3CC(C1)C(NC(=O)C1(c4ccccc4)CC1)C(C3)C2 (stereo not shown) [B, E-4-[(1-Phenyl-cyclopropanecarbonyl)-amino]-adamantane-1-carboxylic acid] | 0 | 2 | 102 |  | 
2 | CC1(C(=O)N[C@@H]2[C@@H]3C[C@@H]4C[C@H]2C[C@@](C(N)=O)(C4)C3)CCN(Cc2ccccc2)C1=O (stereo partly shown) [BB] |  |  |  |  | significant improvement in memory retention
3 | O=C(O)C12CC3CC(C1)C(NC(=O)C1(c4ccc(Cl)cc4)CCC1)C(C3)C2 (stereo not shown) [Compound A, E-4-{[1-(4-Chloro-phenyl)-cyclobutanecarbonyl]-amino}-adamantane-1-carboxylic acid] | 5 | 5 | 43 | > 10000 | 
4 | Cc1ccccc1CN1CCCC(C)(C(=O)NC2C3CC4CC2CC(C(N)=O)(C4)C3)C1=O (stereo not shown) [Compound AA] |  |  |  |  | significant improvement in memory retention
5 | NC(=O)C12CC3CC(C1)C(NC(=O)C1(c4ccc(Cl)cc4)CCC1)C(C3)C2 (stereo not shown) [D, E-4-{[1-(4-Chloro-phenyl)-cyclobutanecarbonyl]-amino}-adamantane-1-carboxylic acid amide] |  | 10 |  |  | 

The next lines start with results.

Row | Mouse Liver Microsomal Turnover (%) [1] [%] | Human Liver Microsomal Turnover (%) [2] [%] | IC50 [3] [nM] | IC50 [5] [nM] | SMILES | memory retention (transfer latency), FIG. 3 [4]
6 | 0 | 0 | 82 | > 10000 | CC(C)(C(=O)N[C@@H]1[C@@H]2C[C@@H]3C[C@H]1C[C@@](C(=O)O)(C3)C2)c1ccccc1 [C, E-4-(2-Methyl-2-phenyl-propionylamino)-adamantane-1-carboxylic acid] | 
7 |  | 83 |  |  | CC(C)(C(=O)NC1C2CC3CC(C2)CC1C3)c1ccccc1 (stereo not shown) [E, N-2-adamantyl-2-methyl-2-phenylpropanamide] | 
8 |  | 62 |  |  | O=C(NC1C2CC3CC(C2)CC1C3)C1(c2ccccc2)CC1 (stereo not shown) [F, N-2-adamantyl-1-phenylcyclopropanecarboxamide] | 
